Source: patent publication US4921528A, “Substituted azolylmethyl-cyclopropyl-carbinol derivatives” (Bayer Aktiengesellschaft, priority 1984, dated 1990)

Assays:
Format in all cases: in vivo
[1] = system: Rice; test: Inhibition of growth of rice; details: pots placed in active compound solution; length determined after development of the third leaf
Protocol: Inhibition of growth of rice
(§1) Solvent: 30 parts by weight of dimethylformamide
(§2) Emulsifier: 1 part by weight of polyoxyethylene sorbitan monolaurate.
To prepare a suitable preparation of active compound, 1 part by weight of active compound is mixed with the stated amounts of solvent and emulsifier, and the mixture is made up to the desired concentration with water.
Rice is grown in climatic chambers in small pots containing vermiculite, until the first leaf reaches a size of 1-2 cm. At this stage, the pots are placed in the prepared active compound solutions to a height corresponding to half the height of the pot.
After the development of the third leaf, the length of all plants is determined, and expressed as a percentage of the length of the control plants. 100% means growth corresponding to that of the control plants, values below 100% mean inhibition of growth, and values above 100% mean promotion of growth.

[2] = system: Venturia inaequalis; test: Venturia test (apple)/protective; details: young apple plants sprayed, then inoculated; evaluation 12 days after inoculation; compared with comparative substance (c)
Protocol: Venturia test (apple)/protective/ Solvent: 4.7 parts by weight of acetone Emulsifier: 0.3 parts by weight of alkylaryl polyglycol ether. To produce a suitable preparation of active compound, 1 part by weight of active compound is mixed with the stated amounts of solvent and emulsifier, and the concentrate is diluted with water to the desired concentration. To test for protective activity, young plants are sprayed with the preparation of active compound until dripping wet. After the spray coating has dried on, the plants are inoculated with an aqueous conidia suspension of the apple scab causative organism (Venturia inaequalis) and then remain in an incubation cabinet at 20° C. and 100% relative atmospheric humidity for 1 day. The plants are then placed in a greenhouse at 20° C. and a relative atmospheric humidity of about 70%. Evaluation is carried out 12 days after the inoculation.

[3] = system: Soya bean plants; test: Inhibition of growth of soya beans; details: sprayed until dripping wet; measured after 3 weeks; compared with prior-art compound (D)
Protocol: Inhibition of growth of soya beans
as §1, §2
(§3) To produce a suitable preparation of active compound, 1 part by weight of active compound is mixed with the stated amounts of solvent and emulsifier and the mixture is made up to the desired concentration with water.
(§4) Soya bean plants are grown in a greenhouse until the first secondary leaf has unfolded completely. In this stage, the plants are sprayed with the preparations of active compound until dripping wet. After 3 weeks, the additional growth is measured on all the plants and the inhibition of growth in per cent of the additional growth of the control plants is calculated. 100% inhibition of growth means that growth has stopped and 0% denotes a growth corresponding to that of the control plants.

[4] = system: Cotton plants; test: Inhibition of growth of cotton; details: sprayed until dripping wet; measured after 3 weeks; compared with prior-art compound (A)
Protocol: Inhibition of growth of cotton
as §1
Emulsifier: 1 part by weight of […] sorbitan monolaurate.
as §3
Cotton plants are grown in a greenhouse until the 5th secondary leaf has unfolded completely. In this stage, the plants are sprayed with the preparations of active compound until dripping wet. After 3 weeks, the additional growth of the plants is measured and the inhibition of growth in per cent of the additional growth of the control plants is calculated. 100% inhibition of growth means that growth has stopped and 0% denotes a growth corresponding to that of the control plants.

[5] = system: Barley plants; test: Inhibition of growth of barley; details: sprayed until dripping wet; measured after 3 weeks; compared with prior-art compounds (A), (B), (C) and (D)
Protocol: Inhibition of growth of barley
as §1, §2, §3
as §4, with “Barley plants” for “Soya bean plants”, “greenhouse to” for “greenhouse until”, “the 2-leaf stage.” for “the first secondary leaf has unfolded completely.”, “all” for “all the”

SMILES | inhibition of growth of rice (length of plants as percentage of control plants) [1] | protective activity against apple scab (Venturia inaequalis) [2] | inhibition of growth of soya beans (per cent of additional growth of control plants) [3] | inhibition of growth of cotton (per cent of additional growth of control plants) [4] | inhibition of growth of barley (per cent of additional growth of control plants) [5]
CCSC1(C(O)(Cn2cncn2)c2ccc(Cl)cc2)CC1 (stereo not shown) [Compound I-1, 1-(4-chlorophenyl)-1-[1-(ethylthio)-1-cyclopropyl]-2-(1,2,4-triazol-1-yl)1-ethanol] | pronounced inhibition of growth | better activity than the known comparative substance (c) | – | – | –
CC[S+]([O-])C1(C(O)(Cn2cncn2)c2ccc(Cl)cc2)CC1 (stereo not shown) [Compound I-3, 1-(4-chlorophenyl)-1-[1-(ethylsulphinyl)-1-cyclopropyl]-2-(1,2,4-triazol-yl)1-ethanol] | pronounced inhibition of growth | – | more pronounced inhibition of growth than the compound (D) | more pronounced inhibition of growth than the compound (A) | more pronounced inhibition of growth than the compounds (A), (B), (C) and (D)
OC(Cn1cncn1)(c1ccc(Cl)cc1)C1(Oc2ccccc2)CC1 (stereo not shown) [Compound I-5] | pronounced inhibition of growth | – | – | more pronounced inhibition of growth than the compound (A) | more pronounced inhibition of growth than the compounds (A), (B), (C) and (D)
CCCCSC1(C(O)(Cn2cncn2)c2ccc(Cl)cc2)CC1 (stereo not shown) [Compound I-6] | pronounced inhibition of growth | – | – | – | –
